[1] abbreviates: measured, listed as 18F-Afatinib.

“And” between values parts separate entries of the source, which are not always exact repeats. Identical values can stand only once. Like-named read-outs stand apart in the source and are kept apart here.

As for `C#Cc1cccc(Nc2ncnc3cc(OCCO)c(OCCOC)cc23)c1` [OSI413], the Active metabolite exposure (cited) is 10 % AUC.
Consider `CN(C)C/C=C/C(=O)Nc1cc2c(Nc3ccc([18F])c(Cl)c3)ncnc2cc1OC1CCOC1` (stereo not drawn) [^18F-afatinib], for which, where the note is “measured”, the “SUV Aorta (blood SUV)” value is 0.5 (±0.1), the “SUV Brain” value is listed as 0.04 (0.01), the “SUV Kidney” value was 3.5 (0.7) and the “SUV Liver” value is recorded as 11.8 (2.2). For the same molecule, for the setting “measured”, the “SUV Lung” value is listed as 1.3 (0.5); the “SUV Spleen” value is on record as 6.8 (1.0); the “SUV Vertebra” value was 2.4 (0.8); the “SUV-AUC Liver” value was 731.5 (87.4) MBq/mL and seconds. Also, where the note is “measured”, the “SUV-AUC Lung” value was 98.5 (16.5) MBq/mL and seconds; the “TBR Brain” value is on record as 0.08 (0.03); the “TBR Kidney” value was 6.9 (1.8); the “TBR Liver” value is on record as 23.3 (6.2). Where the note is “measured”, the “TBR Lung” value is recorded as 2.5 (1.2); the “TBR Spleen” value was 13.2 (2.3); the “TBR Vertebra” value was 4.8 (2.0); the “TBR-AUC Liver” value is 747.7 (426.3) TBR and seconds. Under “measured”, the “TBR-AUC Lung” value was 90.9 (37.9) TBR and seconds; the parent fraction is 70% and 35%. Also, under setting [1], the “SUV Aorta (blood SUV)” value was 0.5 (0.1); the “SUV Tumor” value is 1.8 (1.3) and 1.6 (0.1); the “TBR Tumor” value was 3.6 (2.4) and 3.3 (1.0); the “TBR-AUC Tumor” value is 150.7 (9.1) TBR and seconds and 113.0 (44.8) TBR.
Take `C=CC(=O)Nc1cc(Nc2nccc(-c3cn([11CH3])c4ccccc34)n2)c(OC)cc1N(C)CCN(C)C` [^11C-osimertinib]: where the note is “measured”, the “parent fraction, initial decline (drop to)” value worked out at 50% and the “parent fraction, plateau” value is on record as 28–29%.
On to `C=CC(=O)Nc1cc(Nc2nccc(-c3cn(C)c4ccccc34)n2)c(OC)cc1N(C)CCNC` [AZ7550], for which, under “cited”, the Active metabolite exposure stood at 10 % AUC and the “Active metabolite potency relative to osimertinib (OSI)” value is listed as “as OSI”.
As to `C#Cc1cccc(Nc2ncnc3cc(OCCOC)c(OCCO)cc23)c1` [OSI-420], the Active metabolite exposure (cited) turned out to be 10 % AUC.
Regarding `C=CC(=O)Nc1cc(Nc2nccc(-c3cn(C)c4ccccc34)n2)c(OC)cc1N(C)CCN(C)C` [Osimertinib, reference compound], where the note is “cited”, the AUC dose normalized was determined as 75 µM·h; the “Cmin at Css” value came to 417 nM; the “Metabolism Liver” value is on record as about 99%; the “Renal extraction, unchanged” value was found to be 2%. Also, for the setting “cited”, the Strength of basicity entry is recorded as “Strong”, the “Target Ctrough” value is reported as 332 nM and the “Time to Css” value was 15 days.
On to `CN(C)C/C=C/C(=O)Nc1cc2c(Nc3ccc(F)c(Cl)c3)ncnc2cc1O[C@H]1CCOC1` [Afatinib, reference compound], for which, for the setting “cited”, the AUC dose normalized came out at 23 µM·h, the Active metabolites entry is recorded as “None”, the Ka came to 0.252 h⁻¹ and the Strength of basicity entry is “Strong”. Moreover, for the setting “cited”, the “Target Ctrough” value was 50 nM and the “Time to Css” value is reported as 8 days.
On to `C=CC(=O)Nc1cc(Nc2nccc(-c3c[nH]c4ccccc34)n2)c(OC)cc1N(C)CCN(C)C` [AZ5104], for which, under “cited”, the Active metabolite exposure was determined as 10 % AUC and the “Active metabolite potency relative to osimertinib (OSI)” value is recorded as “higher”.
Consider `C#Cc1cccc(Nc2ncnc3cc(OCCOC)c(OCCOC)cc23)c1` [Erlotinib, reference compound], for which, for the setting “cited”, the AUC dose normalized is 207 µM·h, the “Cmin at Css” value is given as 2567 nM, the Ka was determined as 0.949 h⁻¹ and the “Metabolism Liver” value was about 98%. In addition, where the note is “cited”, the “Renal extraction, unchanged” value is given as under 2%; the Strength of basicity entry is “Weak”; the “Target Ctrough” value came to 1271 nM; the “Time to Css” value was in the range of 7 to 8 days.

The values are drawn from publication PMC9032381 (Diagnostics, 2022).
